Among the data in PubChem BioAssay (NCI) are TGI and GI50 values, retold here.

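Dose response: 5 concentrations. Exposure: 48 h. Format: 96-well plates. Endpoint: linear interpolation; highest concentration if not reached. Here, GI50 denotes the concentration required for 50% inhibition of growth. Definition used: TGI = concentration required for complete inhibition of growth.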

Experiment in all cases: NCI tumour cell line growth inhibition, 48 h
Assay [1] relates to HCT-15 colon.
Assay [2] relates to HS 578T breast.
Assay [3] has as its system NCI-H226 lung.
In assay [4] the test system is UACC-257 melanoma.
The test system of assay [5] is SF-268 CNS.

With `Cc1cc(S(=O)(=O)Nc2nncn2-c2ccc(Cl)cc2)c(S)cc1Cl`, the TGI in assay [1], in assay [2], in assay [3], in assay [4] and in assay [5] was greater than 10 µM in each case.

For `CN(CCCNC(=O)c1nn(C)c2c1Cc1ccccc1-2)CCCNC(=O)c1nn(C)c2c1Cc1ccccc1-2`, the TGI amounted to 40.4 µM in assay [1], 42.1 µM in assay [2], 30.1 µM in assay [4] and 37.9 µM in assay [5].

As to `Cc1cc2c(c(S(=O)(=O)c3ccccc3[N+](=O)[O-])c1)NCCC2`, the TGI in assay [1], in assay [2], in assay [3] and in assay [5] was greater than 100 µM each time.

For `CC(C)(C)NC(=O)/C(=C\Sc1ccccc1)c1ccccc1`, the TGI in assay [1] was greater than 100 µM; in assay [2] it was greater than 100 µM; in assay [3] it was greater than 100 µM; in assay [4], greater than 100 µM; in assay [5] it was greater than 87.8 µM.

For `C=C(C)[C@H]1C2=CC(C)=C(O2)[C@@H](O)[C@H](C(=C)C)CCC2=C[C@H]1OC2=O`, the TGI in assay [1], in assay [2], in assay [3], in assay [4] and in assay [5] was greater than 100 µM in each case.

On to `COC(=O)c1c(C)cccc1C1CN=NC12Cc1cc(C)cc(C)c1C2=O` (configuration not stated), for which the TGI is greater than 100 µM in assay [1]; greater than 100 µM in assay [2]; greater than 100 µM in assay [3]; 80.3 µM in assay [4]; greater than 100 µM in assay [5].

`COc1ccc(NC(C(N)=O)c2cc3cc(Br)ccc3nc2Cl)cc1` (configuration not stated): the TGI in assay [1], in assay [2], in assay [3], in assay [4] and in assay [5] was greater than 100 µM throughout.

As for `CCOC(=O)CCN1C(=O)C(=O)N(c2ccc(OC)cc2)C1=S`, the TGI in assay [1], in assay [2], in assay [3], in assay [4] and in assay [5] was greater than 100 µM in each case.

`O=C(OC1CN2CCC1CC2)N(c1ccccc1)c1ccccc1` (configuration not stated): the TGI in assay [1], in assay [2], in assay [3], in assay [4] and in assay [5] was greater than 100 µM throughout.

For `O=[N+]([O-])c1cc(F)ccc1S(=O)(=O)c1ccccc1`, the TGI in assay [1], in assay [2], in assay [3], in assay [4] and in assay [5] was greater than 10 µM in each case.

Consider `COC(=O)C1=C(O)CCCC(C2CCCCC(=O)C2C(=O)OC)=C1` (configuration not stated), for which the TGI in assay [1], in assay [3] and in assay [4] was greater than 100 µM throughout.

In the case of `CCCOP(=O)(OCCC)OC(C(F)(F)F)C(F)(F)F`, the TGI in assay [1], in assay [2], in assay [3] and in assay [4] was greater than 100 µM throughout.

As for `C=CC(=O)N1C/C(=C\c2ccc([N+](=O)[O-])cc2)C(=O)/C(=C/c2ccc([N+](=O)[O-])cc2)C1`, the TGI in assay [1] was 0.272 µM; in assay [2], 0.804 µM; in assay [3], 1.05 µM; in assay [4], 3.25 µM; in assay [5] it was 0.338 µM.

As for `CC(=O)O[C@H]1C(=O)[C@@]2(C)[C@H]([C@H](OC(=O)c3ccccc3)[C@]3(O)C[C@H](OC(=O)[C@H](O)[C@@H](NC(=O)c4ccccc4)c4cccc(N(C)C)c4)C(C)=C1C3(C)C)[C@]1(OC(C)=O)CO[C@@H]1C[C@@H]2O`, the TGI in assay [1] is 74.5 µM; in assay [2] it was 0.603 µM; in assay [3], 29 µM; in assay [4] it was greater than 75 µM; in assay [5] it was greater than 75 µM.

Turning to `CN(C)CCOc1ccc(-c2c(Oc3ccccc3)c(=O)oc3ccccc23)cc1`, the TGI in assay [1] was determined as 22.6 µM; in assay [2], 35.2 µM; in assay [3], 31.6 µM; in assay [4], 19.5 µM; in assay [5], 25.4 µM.

On to `O=c1[nH]c2nccn2c2c1SCCN2`, for which the TGI in assay [1], in assay [2], in assay [3], in assay [4] and in assay [5] was greater than 100 µM in each case.

Regarding `Nc1ccc2ccc(N3CCNCC3)nc2n1`, the TGI in assay [1] is greater than 100 µM; in assay [2] it was greater than 100 µM; in assay [3], 85.2 µM; in assay [4], greater than 100 µM; in assay [5], greater than 100 µM.

Turning to `COc1cc2cc(C(=O)N3CC(CCl)c4ccc(N(C)C)cc43)[nH]c2c(OC)c1OC` (configuration not stated), the TGI in assay [1] was greater than 59.9 µM; in assay [2] it was 0.758 µM; in assay [3], 0.428 µM; in assay [5], 3.81 µM.

Consider `COc1ccc2c(c1)NC1(CCN(CCCC(=O)c3ccc(F)cc3)CC1)N=N2`, for which the TGI in assay [1] is 52.4 µM; in assay [3] it was 95.6 µM; in assay [4], 46.1 µM; in assay [5], greater than 100 µM.

With `COC(=O)c1cn(CC(O)CCl)nn1` (configuration not stated), the TGI in assay [1], in assay [2], in assay [4] and in assay [5] was greater than 100 µM in each case.

As to `CN1Cc2cc(O)c(O)cc2C(O)C1` (configuration not stated), the TGI in assay [2], in assay [3], in assay [4] and in assay [5] was greater than 100 µM each time.

As for `CCCCCCCCCCCCCC[n+]1ccc(C(N)=O)cc1`, the GI50 in assay [1] was 7.19 µM; in assay [2] it was 2.01 µM; in assay [3], 1.52 µM; in assay [4] it was 2.24 µM. Besides, the TGI in assay [1] turned out to be 49.6 µM; in assay [2], 7.05 µM; in assay [3], 4.01 µM; in assay [4] it was 6.08 µM.

For the compound `Cc1ccc(-c2cc[n+]3c(n2)oc2ccccc23)cc1`, the TGI is greater than 100 µM in assay [1], 81.5 µM in assay [2], 59.2 µM in assay [4] and greater than 100 µM in assay [5].

Turning to `O=C(CN1CCCCC1)Nc1ccc2c(c1)C1Oc3ccccc3CC1CO2` (configuration not stated), the TGI was 35.1 µM in assay [1], 55.8 µM in assay [3], 36 µM in assay [4] and greater than 100 µM in assay [5].
